# Test results reported in publication PMC8868518, “Exploring Titanium(IV) Complexes as Potential Antimicrobial Compounds” (Antibiotics, 2022).
# Where two headings read alike, the source gives them in different places.
# Assays:
# [1] = test system: P. aeruginosa (ATCC 27853); assay: CO-ADD antibacterial assay, growth inhibition (OD600); type: cell-based, Pseudomonas aeruginosa; conditions: up to 32 μg/mL
# Method: (§1) Dry compounds ranging from 1–2 mg were weighed into properly labeled Eppendorf tubes and sealed with parafilm. The compounds were used as received by the CO-ADD. For the screenings, most compounds were dissolved to a stock concentration of 10 mg/mL in DMSO. K2[Ti(Citrate)3], Na3Citrate, and K2[TiO(Oxalate)2] were dissolved in warm water. […] Samples were diluted in water to a final testing concentration of 32 µg/mL while keeping the final co-solvent concentration to a maximum of 0.5%. Where applicable, compounds were serially diluted 1:2 fold eight times. Each sample concentration was prepared in 384-well plates, non-binding surface plate (NBS; Corning 3640) for each bacterial/fungal strain, tissue-culture treated (TC-treated; Corning 3712/3764), black for mammalian cell types and polypropylene 384-well (PP; Corning 3657) for hemolysis assays, all in duplicate (n = 2), and keeping the final DMSO concentration to a maximum of 0.5%. All sample preparation was conducted using liquid handling robots.
# (§2) For the bacterial assays, four Gram-negative bacteria (E. coli (ATCC 25922, Manassas, VA, USA); K. pneumoniae (ATCC 700603), A. baumannii; (ATCC 19606), and P. aeruginosa (ATCC 27853) and the Gram-positive bacteria (S. aureus MRSA (ATCC 43300) were used. Each strain was cultured in cation-adjusted Mueller Hinton broth (CAMHB; Bacto Laboratories 212322, Mount Pritchard, Australia) at 37 °C overnight. A sample of each culture was then diluted 40-fold in fresh CAMHB and incubated at 37 °C for 1.5–3 h. The resultant mid-log phase cultures were diluted with CAMHB (CFU/mL measured by OD600), then added to each well of the compound-containing plates (384-well non-binding surface (NBS) plates; Corning CLS3640, Millipore Sigma, Burlington, MA, USA), giving a cell density of 5 × 10^5 CFU/mL and a total volume of 50 µL. Plates were covered and incubated at 37 °C for 18 h without shaking. Inhibition of bacterial growth was determined by measuring absorbance at 600 nm (OD600) with a Tecan M1000 Pro monochromator plate reader, using media-only as negative control and bacteria without inhibitors as a positive control. […] Colistin sulfate (Sigma C4461) and vancomycin HCl (Sigma 861987) were used as internal controls on each plate for Gram-negative and Gram-positive bacteria, respectively.
# [2] = test system: C. neoformans (ATCC 208821); assay: CO-ADD antifungal assay, growth inhibition (resazurin, OD600-570); type: cell-based, Cryptococcus neoformans; conditions: up to 32 μg/mL
# Method: (§3) The compounds were used as received by the CO-ADD. For the screenings, most compounds were dissolved to a stock concentration of 10 mg/mL in DMSO. K2[Ti(Citrate)3], Na3Citrate, and K2[TiO(Oxalate)2] were dissolved in warm water. [Cu(Deferasirox)(H2O)]2 was dissolved in pyridine after its solubility was determined to be excellent in pyridine due to coordination of the solvent to the metal producing [Cu(Deferasirox)(pyridine)]2 in situ. […] Each sample concentration was prepared in 384-well plates, non-binding surface plate (NBS; Corning 3640) for each bacterial/fungal strain, tissue-culture treated (TC-treated; Corning 3712/3764), black for mammalian cell types and polypropylene 384-well (PP; […] All sample preparation was conducted using liquid handling robots. For the fungal assays, the fungi (C. albicans (ATCC 90028) and C. neoformans) (ATCC 208821) were used. Both fungi (yeast) strains were cultured for 3 days on Yeast Extract-Peptone Dextrose (YPD; Becton Dickinson 242720, Thermo Fisher Scientific, Waltham, MA, USA) agar at 30 °C. A yeast suspension of 1 × 10^6 to 5 × 10^6 CFU/mL (as determined by OD530) was prepared from five colonies from the agar plates, subsequently diluted with Yeast Nitrogen Base media (YNB; Becton Dickinson 233520, Thermo Fisher Scientific, Waltham, MA, USA), and added to each well of the compound-containing plates (384-well plates, NBS; Corning CLS3640) giving a final cell density of 2.5 × 10^3 CFU/mL and a total volume of 50 μL. Plates were covered and incubated at 35 °C for 36 h without shaking. […] Sigma R7017) and incubation at 35 °C for 2 h, using media-only as a negative control and fungi without inhibitors as a positive control. […] Fluconazole (Sigma F8929) was used as an internal control on each plate for both strains.
# [3] = test system: K. pneumoniae (ATCC 700603); assay: CO-ADD antibacterial assay, growth inhibition (OD600); type: cell-based, Klebsiella pneumoniae; conditions: up to 32 μg/mL
# Method: as §1, §2
# [4] = test system: HEK293 ATCC CRL-1573 human embryonic kidney cells; assay: CO-ADD cytotoxicity assay (resazurin); type: cell-based; conditions: all concentrations examined (0.25-32 μg/mL), 20 h; CC50 could not be measured
# Method: The compounds were used as received by the CO-ADD. For the screenings, most compounds were dissolved to a stock concentration of 10 mg/mL in DMSO. K2[Ti(Citrate)3], Na3Citrate, and K2[TiO(Oxalate)2] were dissolved in warm water. [Cu(Deferasirox)(H2O)]2 was dissolved in pyridine after its solubility was determined to be excellent in pyridine due to coordination of the solvent to the metal producing [Cu(Deferasirox)(pyridine)]2 in situ. […] Each sample concentration was prepared in 384-well plates, non-binding surface plate (NBS; Corning 3640) for each bacterial/fungal strain, tissue-culture treated (TC-treated; Corning 3712/3764), black for mammalian cell types and polypropylene 384-well (PP; […] All sample preparation was conducted using liquid handling robots. HEK293 ATCC CRL-1573 human embryonic kidney cells were counted manually in a Neubauer hemocytometer and added to compound-containing plates (384-well plates, tissue culture-treated (TC); […] Life Technologies 11995-073) with 10% FBS (GE SH30084.03).
# [5] = test system: S. aureus MRSA (ATCC 43300); assay: CO-ADD antibacterial assay, growth inhibition (OD600); type: cell-based, Staphylococcus aureus
# Method: as §1, §2
# [6] = test system: A. baumannii (ATCC 19606); assay: as above; type: cell-based, Acinetobacter baumannii; conditions: up to 32 μg/mL
# Method: as §1, §2
# [7] = test system: MRC-5 cells; conditions: cited from earlier work
# [8] = test system: E. coli (ATCC 25922); assay: CO-ADD antibacterial assay, growth inhibition (OD600); type: cell-based, Escherichia coli; conditions: up to 32 μg/mL
# Method: as §1, §2
# [9] = test system: C. albicans (ATCC 90028); assay: CO-ADD antifungal assay, growth inhibition (OD630); type: cell-based, Candida albicans; conditions: up to 32 μg/mL
# Method: as §3
# [10] = test system: MRC-5 cells; assay: MRC-5 cell viability, dose-response treatment, MTT assay; type: cell-based, human; conditions: MRC-5 cells, MTT, 72 h, pH 7.4, n = 6, this work
# Method: A thawed stock of MRC-5 cells was washed with 1X PBS and resuspended in phenol red DMEM media (supplemented with 10% FBS and 1% of penicillin-streptomycin) and then seeded in a 100 mm × 20 mm (complete, O.D. x H) petri dish and grown in a 5% (v/v) CO2 humidified atmosphere at 37 °C. At least three passages were performed to ensure the integrity of the cells. After this point, cells were collected, thoroughly washed with 1X PBS, and then resuspended in phenol red-free DMEM (supplemented with 10% FBS, 1% Streptomycin/Penicillin, and 2.4 mM L-glutamine) at a 2.0 × 10^5 cells/mL concentration. Approximately 100 µL of the cell solution was seeded into wells of several 96-well plates to begin the MTT assay, which was performed in the 5% (v/v) CO2 humidified atmosphere at 37 °C. At least one lane of wells in each plate was supplied media without cells as a control. […] Most of the compounds were dissolved in 1X PBS buffer at pH 7.4. […] Titanocene dichloride was prepared as a fresh stock solution in DMSO and then diluted in 0.1 M NaCl (aq) instead of 1X PBS (to minimize hydrolysis induced precipitation) to the desired concentration while maintaining a constant 1% (v/v) DMSO background (0.5% DMSO after mixing with the well media). A control of cells treated with media containing 1% (v/v) DMSO was included in the study. The titanocene solutions were used within an hour of preparation in the final cell solution. […] At 3 h before a total of 72 h of incubation with the compounds, the cells were treated with 25 µL of 9 mg/mL MTT prepared in 1X PBS and sterile-filtered. Upon completion of the three hours, 50 µL of 10% (w/v) SDS (prepared in 0.1 M Tris buffer at pH 11) was added to solubilize the purple formazan product crystals and left overnight in the incubator. Control wells in the plates consisted of: (1) Untreated cells + MTT as the measure of 100% viable cell growth in the media and (2) Media with no cells + MTT as the measure of zero cells in the media. Two sets of compounds could be tested per plate. The plates were read at the wavelength of 570 nm (absorbance of the formazan product at pH 10.0) and 800 nm (background control) using a Tecan plate reader. The absorbance of all wells was compared to the absorbance of the untreated cells with the MTT set as the 100% viable cell standard and the absorbance of the zero cell control set as the 0% viable cell standard. […] Nonlinear regression in Origin 8.5 was utilized to fit the growth curves using the pharmacology dose–response equation to determine the half-maximal inhibitory concentration (IC50) and the corresponding standard deviation. All samples were tested six times.
# [11] = predicted or measured MIC, ≥75% growth inhibition
# [12] = predicted or measured MIC, ≥75% growth inhibition, 36 h
# [13] = predicted or measured MIC, lowest concentration with ≥75% growth inhibition, 0.25-32 μg/mL, 18 h
Compound,"MIC P. aeruginosa [1, 11] [µg/mL]","Dmax P. aeruginosa, maximum % inhibition [1] [%]","MIC C. neoformans [2, 12] [µg/mL]","Dmax C. neoformans, maximum % inhibition [2] [%]","MIC K. pneumoniae [3, 11] [µg/mL]","Dmax K. pneumoniae, maximum % inhibition [3] [%]","MIC S. aureus (MRSA) [5, 13] [µg/mL]","Dmax S. aureus (MRSA), maximum % inhibition ([5]; up to 32 μg/mL) [%]","MIC A. baumannii [6, 11] [µg/mL]","Dmax A. baumannii, maximum % inhibition [6] [%]","MIC E. coli [8, 11] [µg/mL]","Dmax E. coli, maximum % inhibition [8] [%]","MIC C. albicans [9, 12] [µg/mL]","Dmax C. albicans, maximum % inhibition [9] [%]",further results
"4-[(3Z,5E)-3,5-Bis(6-oxocyclohexa-2,4-dien-1-ylidene)-1,2,4-triazolidin-1-yl] benzoic acid [Compound 4, reference compound]",>32,5.82,>32,−25.58,>32,20.2,>32,44.31,>32,18.95,>32,7.72,>32,4.31,antiproliferative effect against HEK293 (in words) [4]: inactive; IC50 ± SD (µM) [7]: Proliferative Behavior; increase in the proliferation of MRC-5 cells [7]: nearly three-fold increase
"Oc1ccccc1-c1n[nH]c(-c2ccccc2O)n1 [Compound 3, 2-[3-(2-Hydroxyphenyl)-1H-1,2,4-triazol-5-yl]phenol, reference compound]",,,,,,,,,,,,,,,"MIC ([1]; Pseudomonas aeruginosa, ATCC27853, predicted or measured MIC, ≥75% growth inhibition): > 32 µg/mL; Dmax ([1]; Pseudomonas aeruginosa, ATCC27853, read-out: Dmax P. aeruginosa, maximum % inhibition): 10%; MIC ([2]; Cryptococcus neoformans, ATCC208821, predicted or measured MIC, ≥75% growth inhibition, 36 h): > 32 µg/mL; Dmax ([2]; Cryptococcus neoformans, ATCC208821, read-out: Dmax C. neoformans, maximum % inhibition): -7.23%; MIC ([3]; Klebsiella pneumoniae, ATCC700603, predicted or measured MIC, ≥75% growth inhibition): > 32 µg/mL; Dmax ([3]; Klebsiella pneumoniae, ATCC700603, read-out: Dmax K. pneumoniae, maximum % inhibition): 4.11%; activity against MRSA (in words) ([5]; CO-ADD screen, 32 μg/mL): inactive; MIC ([5]; Staphylococcus aureus, predicted or measured MIC, lowest concentration with ≥75% growth inhibition, 0.25-32 μg/mL, 18 h): > 32 µg/mL; Dmax ([5]; Staphylococcus aureus, up to 32 μg/mL, read-out: Dmax S. aureus (MRSA), maximum % inhibition): -2.34%; MIC ([6]; Acinetobacter baumannii, ATCC19606, predicted or measured MIC, ≥75% growth inhibition): > 32 µg/mL; Dmax ([6]; Acinetobacter baumannii, ATCC19606, read-out: Dmax A. baumannii, maximum % inhibition): -1.93%; IC50 ± SD (µg/mL) [7]: >>25.3 µg/mL; IC50 ([7]; read-out: IC50 ± SD): > 100 µM; MIC ([8]; Escherichia coli, ATCC25922, predicted or measured MIC, ≥75% growth inhibition): > 32 µg/mL; Dmax ([8]; Escherichia coli, ATCC25922, read-out: Dmax E. coli, maximum % inhibition): -9.07%; MIC ([9]; Candida albicans, ATCC90028, predicted or measured MIC, ≥75% growth inhibition, 36 h): > 32 µg/mL; Dmax ([9]; Candida albicans, ATCC90028, read-out: Dmax C. albicans, maximum % inhibition): 6.23%"
K2[Ti(Citrate)3] [Compound 7],>32,7.99,>32,−7.88,>32,15.43,>32,38.01,>32,17.94,>32,10.41,>32,44.53,IC50 ± SD (µg/mL) [10]: >>73.2 µg/mL; IC50 ([10]; read-out: IC50 ± SD): > 100 µM
